# Measured values taken from patent publication US20180230143A1, “INHIBITORS OF NHR2 AND/OR RUNX1/ETO-TETRAMERIZATION” (Heinrich-Heine-Universität Düsseldorf, priority 2013, published 2018).
# Columns and labels:
# Type in all cases: biochemical
# RUNX1-BCR protein [1] = target: T1, RUNX1-BCR protein (Homo sapiens, UniProt P11274+Q01196); experiment: ABCD (avidin, biotin, complex, DNA) assay with RUNX1-BCR protein; conditions: read-out: ABCD Inhibition [%] BCR
# T1 construct: replacing the NHR2 domain of the construct with the homologous BCR tetramerization domain (RUNX1-BCR protein); His6 (C); made in house; host or cells: E. coli BL21(DE3)
# T1 sequence (Q01196+P11274 fused): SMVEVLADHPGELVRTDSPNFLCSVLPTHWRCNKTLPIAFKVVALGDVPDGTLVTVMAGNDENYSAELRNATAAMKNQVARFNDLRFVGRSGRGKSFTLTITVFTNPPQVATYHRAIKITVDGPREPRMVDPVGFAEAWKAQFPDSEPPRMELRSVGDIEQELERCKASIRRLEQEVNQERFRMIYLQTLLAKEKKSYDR
# Experimental: (§1) Oligonucleotides were annealed to the corresponding unmodified antisense oligonucleotide to generate the RUNX1 binding site. Purified RUNX1 proteins were pre-incubated with a compound for 1 h at 4° C. Similarly the biotinylated double-stranded oligonucleotides were pre-incubated with streptavidin coated magnetic beads (Dynabeads M-280 Streptavidin, Invitrogen) for 1 h at 4° C. Protein/compound samples and beads with bound oligonucleotide were incubated in binding buffer (25 mM HEPES, pH 7.5, 50 mM KCl, 1 mM EDTA, pH 8.0, 10 mM MgCl2, 5% glycerol, 1 mM DTT) in the presence of 2% IGEPAL CA-630, 1 μg of salmon sperm, and 0.1% BSA for […]. After washing three times, the bound proteins were eluted from beads in SDS-PAGE sample buffer and resolved on SDS-PAGE followed by immunoblotting with a primary anti-myc (9E10, Santa Cruz) antibody and a secondary HRP-coupled antibody (goat anti-mouse IgG-HRP, Santa Cruz).
# RUNX1-NHR2 protein [2] = target: T2, RUNX1-NHR2 protein (Homo sapiens, UniProt Q01196+Q06455); experiment: ABCD (avidin, biotin, complex, DNA) assay with RUNX1-NHR2 protein; conditions: read-out: ABCD Inhibition [%] NHR2
# T2 construct: the wild type NHR2 tetramerization domain or the homologous BCR tetramerization domain (highlighted) are optionally enclosed by an N-terminal RUNX1 domain; His6 (C); made in house; host or cells: E. coli BL21(DE3)
# T2 sequence (Q01196+Q06455 fused): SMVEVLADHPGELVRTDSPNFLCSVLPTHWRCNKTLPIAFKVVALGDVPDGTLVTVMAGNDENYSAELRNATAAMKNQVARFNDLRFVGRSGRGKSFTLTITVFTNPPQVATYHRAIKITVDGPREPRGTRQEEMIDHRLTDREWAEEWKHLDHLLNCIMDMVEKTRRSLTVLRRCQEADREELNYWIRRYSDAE
# Experimental: as §1
# RUNX1-NHR2 protein [3] = target: T2, RUNX1-NHR2 protein; experiment: ELISA: tetramer-dependent binding of RUNX1-NHR2 protein to immobilized RUNX3 oligonucleotide; conditions: for inhibition at 1000 µM: read-out: ELISA Inhibition [%] NHR2
# Experimental: Preferably, for enzyme-linked immunosorbent assays (ELISA), wells of a 96 well plate were coated with 100 ng streptavidin (Dianova) in PBS over night at 4° C. […] Binding of RUNX1-containing proteins to the R3 oligonucleotide was detected with a primary anti-myc antibody (9E10, Santa Cruz) and a secondary HRP-coupled antibody (donkey anti-mouse IgG-HRP, Santa Cruz). ELISA was developed using the Sure Blue TMB Microwell Peroxidase substrate (KLP), and the reaction was stopped with sulfuric acid (1 N). Absorption at 450 nm and 650 nm was measured with the Spectra Max 340, Molecular Devices. Preferably, the ELISA assay is as further described in the experimental section.
# The inhibition of NHR2 tetramerization was measured in vitro by tetramer-dependent binding of a RUNX1-NHR2 protein construct to an immobilized oligonucleotide derived from the RUNX3 promoter sequence in ELISA and ABCD assays. […] Furthermore, the influence of the inhibitors on the viability of RUNX1/ETO-dependent SKNO-1 cells was determined; as a control RUNX1/ETO-independent U937 cells were used.
# The principle of the biochemical assays for measuring inhibition of NHR2 tetramerization is illustrated in FIG. 1. NHR2 tetramerization and its inhibition was measured in a purpose-built sandwich ELISA (enzyme-linked immunosorbent assay: FIG. 1A). • i) The RUNX1-NHR2 tetramer specifically binds to the biotinylated RUNX3-oligonucleotide (RUNX3-oligo^bio) that is immobilized on a streptavidine coated surface (SA). Disrupting the RUNX1-NHR2 tetramer into dimers leads to a release of the RUNX1-NHR2 protein from the surface. Antibody-conjugated horseradish peroxidase (HRP) binds to a primary anti-myc antibody (α-myc AB) that binds to the immobilized myc-labeled RUNX1-NHR2 tetramer. HRP catalyzes the conversion of 3,3′,5,5′-tetramethylbenzidine (TMB) to 3,3′,5,5-tetramethylbenzidine diimine.
# Wells of a 96 well plate were coated with 100 ng streptavidin (Dianova) in PBS over night at 4° C. […] RUNX1-containing proteins were incubated with synthetic peptides or chemical compounds in binding buffer (25 mM HEPES, pH 7.5, 50 mM KCl, 1 mM EDTA, pH 8.0, 10 mM MgCl2, 5% glycerol, 1 mM DTT) in the presence of 1 μg salmon sperm and 1% IGEPAL CA-630 for 5 h and subsequently added to the streptavidin-bound R3 oligonucleotide for 15 min on the 96 well plate. Binding of RUNX1-containing proteins to the R3 oligonucleotide was detected with a primary anti-myc antibody (9E10, Santa Cruz) and a secondary HRP-coupled antibody (donkey anti-mouse IgG-HRP, Santa Cruz). ELISA was developed using the Sure Blue TMB Microwell Peroxidase substrate (KLP), and the reaction was stopped with sulfuric acid (1 N). Absorption at 450 nm and 650 nm was measured with the Spectra Max 340, Molecular Devices.
# RUNX1-BCR protein [4] = target: T1, RUNX1-BCR protein; experiment: ELISA: tetramer-dependent binding of RUNX1-BCR protein to immobilized RUNX3 oligonucleotide (selectivity control); conditions: for inhibition at 1000 µM: read-out: ELISA Inhibition [%] BCR
# [5] = relative inhibition at 1 mM inhibitor concentration, RUNX1-BCR
# [6] = relative inhibition at 1 mM inhibitor concentration, RUNX1-NHR2 protein
Compound,inhibition at 1000 µM (RUNX1-BCR protein [1]; [5]),inhibition at 1000 µM (RUNX1-NHR2 protein [2]; [6]),"inhibition at 50 µM (RUNX1-NHR2 protein [3]; measured at 50 μM concentration, RUNX1-NHR2 protein)","inhibition at 50 µM (RUNX1-BCR protein [4]; measured at 50 μM concentration, RUNX1-BCR)",inhibition at 1000 µM (RUNX1-NHR2 protein [3]; [6]),inhibition at 1000 µM (RUNX1-BCR protein [4]; [5]),inhibition at 1000 µM (RUNX1-BCR protein [1]),inhibition at 1000 µM (RUNX1-NHR2 protein [2]),inhibition at 1000 µM (RUNX1-NHR2 protein [3]),inhibition at 1000 µM (RUNX1-BCR protein [4])
"O=C(O)c1ccccc1OCc1cn2ccccc2n1 [Compound 2b, 2-(imidazo[1,2-a]pyridin-2-ylmethoxy)benzoic acid]",11.8%,49.4%,83.1%,41.5%,–,–,–,–,–,–
"COc1ccc(-c2ccc(CCC(=O)O)n2CCC(=O)O)cc1 [Compound 5.8, 3,3′-(5-(4-methoxyphenyl)-1H-pyrrole-1,2-diyl)dipropanoic acid]",–,–,–,–,–,–,56.1%,68.2%,70.3%,12%
"Cc1oc(C(=O)O)cc1CSCc1cc(C(=O)O)oc1C [Compound 5.9, 5,5′-dimethyl-4,4′-(sulfanediylbis(methyl))-di(furan-2-carboxylic acid)]",14.6%,52.5%,–,–,51.7%,20.7%,–,–,–,–
"Cc1c(CC(=O)NCCC(=O)O)c(=O)oc2c(C)c3occ(C(C)(C)C)c3cc12 [Compound 5.17, 3-(2-(3-tert-butyl-5,9-dimethyl-7-oxo-7H-furo[3,2-g]chromen-6-yl)acetamido)propanoic acid]",95.3%,89.5%,–,–,41.7%,15.9%,–,–,–,–

# More lines, main results first:
inhibition at 1000 µM (RUNX1-BCR protein [1]; [5]),inhibition at 1000 µM (RUNX1-NHR2 protein [2]; [6]),"inhibition at 50 µM (RUNX1-NHR2 protein [3]; measured at 50 μM concentration, RUNX1-NHR2 protein)","inhibition at 50 µM (RUNX1-BCR protein [4]; measured at 50 μM concentration, RUNX1-BCR)",inhibition at 1000 µM (RUNX1-NHR2 protein [3]; [6]),inhibition at 1000 µM (RUNX1-BCR protein [4]; [5]),Compound,inhibition at 1000 µM (RUNX1-BCR protein [1]),inhibition at 1000 µM (RUNX1-NHR2 protein [2]),inhibition at 1000 µM (RUNX1-NHR2 protein [3]),inhibition at 1000 µM (RUNX1-BCR protein [4])
-3.3%,63.9%,–,–,89.7%,35.4%,"O=C(CSc1nc2ccccc2[nH]1)Nc1ccc(Cl)c(C(=O)O)c1 [Compound 5.4, 5-(2-(1H-benzo[d]imidazol-2-ylthio)acetamido)-2-chlorobenzoic acid]",–,–,–,–
52.6%,83%,–,–,80.5%,3.9%,"COc1ccc(OC)c2[nH]c(C(=O)NCC3(CC(=O)O)CCCCC3)cc12 [Compound 5.18, 2-(1-((4,7-dimethoxy-1H-indole-2-carboxamido)methyl)cyclohexyl)acetic acid]",–,–,–,–
